Reference: US20080063601A1, “Compositions and methods relating to polycystic kidney disease” (priority 2004, published 2008)

Tested on: HeLa cells
Test: [3H]-triptolide binding in presence or absence of extracellular calcium
From the text: To understand further the nature of triptolide's interaction within the cell, Applicant altered cell culture conditions to examine if [^3H]-triptolide binding would be affected. […] Additionally, it has been established that aberrant calcium signaling can result in cell death (Rizzuto, et al., 2003, Oncogene 22, 8619-8627; Orrenius, et al., 2003, Nat Rev Mol Cell Biol 4, 552-565). Due to triptolide's own link with NFκB and NF-AT and its propensity to induce cell death, Applicant assessed whether triptolide binding could be modulated by free calcium levels. Adherent HeLa cells were cultured in the presence or absence of calcium containing medium for 16 hours before [^3H]-triptolide addition. […] It is also noteworthy that an increase in cell density (not cell number) also increases triptolide binding regardless of calcium levels. Additionally, specific calcium chelation by 10 mM EGTA for one hour in calcium containing medium increased binding by nearly 2 fold.
Labeling studies were performed by the addition of approximately 30 nM [^3H]-triptolide directly into the culture media for one hour at 37° C. […] Total cell lysates were prepared (150 mM NaCl, 50 mM Tris-HCl pH 7.4, 1 mM EDTA, 1% Triton X-100, and Complete™ protease inhibitors (Roche)) and protein was quantitated before measuring the [^3H]-triptolide binding activity via liquid scintillation.

## CC(C)[C@]12O[C@H]1[C@@H]1O[C@]13[C@]1(O[C@H]1C[C@H]1C4=C(CC[C@@]13C)C(=O)OC4)[C@@H]2O [triptolide]
10 mM EGTA 1 h in calcium containing medium
  increase of [3H]-triptolide binding on calcium chelation: ~2 fold
calcium-free medium 16 h before [3H]-triptolide
  increase of [3H]-triptolide binding in absence of extracellular calcium: 2-4 fold
